# Laboratory results reported in patent US12310365B2 (priority 2009, dated 2025).
# What was measured:
# Format in all cases: in vivo
# [1] = test system: Pseudoperonospora cubensis; test: Cucumber downy mildew preventive test
# [2] = test system: Pseudoperonospora cubensis; test: Cucumber downy mildew curative test; conditions: single ingredient
# Pyricularia oryzae = test: whole plant or invertebrate; conditions: topical, 168 h, read-out: Control value
# [3] = test system: Botrytis cinerea (Diethofencarb-resistant strain); test: Tomato gray mold preventive test (Diethofencarb-resistant strain)
# Sphaerotheca fuliginea [4] = test: Cucumber powdery mildew preventive test; conditions: Podosphaera fuliginea, topical, 168 h; for pest or weed control at 10 ppm: treatment concentration 10 ppm; for pest or weed control at 20 ppm: treatment concentration 20 ppm
# Sphaerotheca fuliginea [5] = test: Cucumber powdery mildew curative test; conditions: Podosphaera fuliginea, topical, 168 h; for pest or weed control at 10 ppm: treatment concentration 10 ppm; for pest or weed control at 20 ppm: treatment concentration 20 ppm
# [6] = treatment concentration 160 ppm
# [7] = Botrytis cinerea, topical, 48 h, read-out: Control value
# [8] = Pseudoperonospora cubensis, topical, 168 h, treatment concentration 10 ppm
# [9] = Pseudoperonospora cubensis, topical, 168 h, treatment concentration 9.4 ppm
# [10] = treatment concentration 1.7 ppm
# [11] = Pseudoperonospora cubensis, topical, 168 h, treatment concentration 20 ppm
# [12] = treatment concentration 4.4 ppm
molecule,measurement,setting,value
Fosetyl-aluminium,Control value,[1]; [6],60
same,Control value,[2]; [6],67
"Cc1ccc(C(=O)NC[C@@H](NC(=O)OC(C)C)C(C)(C)C)cc1 [Compound 2002, Isopropyl ((1S)-2,2-dimethyl-1-{[(4-methylbenzoyl)amino]methyl}propyl)-carbamate]",pest or weed control at 5 ppm,Pyricularia oryzae,33%
CC(C)NC(=O)N1CC(=O)N(c2cc(Cl)cc(Cl)c2)C1=O [Iprodione],pest or weed control at 50 ppm,[3]; [7],67%
C[Si](C)(C)CC(O)(Cn1cncn1)c1ccc(F)cc1 (centres unmarked) [Simeconazole],pest or weed control at 10 ppm,[3]; [7],33%
same,pest or weed control at 10 ppm,Sphaerotheca fuliginea [4],0%
same,pest or weed control at 10 ppm,Sphaerotheca fuliginea [5],33%
CC(C)(C)C(O)(CCc1ccc(Cl)cc1)Cn1cncn1 (centres unmarked) [Tebuconazole],pest or weed control at 20 ppm,Sphaerotheca fuliginea [4],33%
same,pest or weed control at 20 ppm,Sphaerotheca fuliginea [5],67%
OC(c1ccc(Cl)cc1)(c1cncnc1)c1ccccc1Cl (centres unmarked) [Fenarimol],pest or weed control at 4 ppm,Sphaerotheca fuliginea [4]; treatment concentration 4 ppm,67%
same,pest or weed control at 4 ppm,Sphaerotheca fuliginea [5]; treatment concentration 4 ppm,78%
Clc1ccc(CSC(Cn2cncn2)=Nc2ccc(Cl)cc2Cl)cc1 [Imibenconazole],pest or weed control at 15 ppm,Sphaerotheca fuliginea [4]; treatment concentration 15 ppm,33%
same,pest or weed control at 15 ppm,Sphaerotheca fuliginea [5]; treatment concentration 15 ppm,75%
Maneb,Control value,[3]; treatment concentration 177.5 ppm,17
COCC(=O)N(c1c(C)cccc1C)C(C)C(=O)OC (centres unmarked) [Metalaxyl],pest or weed control at 10 ppm,[1]; [8],60%
same,pest or weed control at 10 ppm,[2]; [8],92%
"Cc1ccc(C(=O)NC[C@@H](NC(=O)OC(C)C)C(F)(F)F)cc1 [Compound 2009, Isopropyl ((1R)-2,2,2-trifluoro-1-{[(4-methylbenzoyl)amino]methyl}ethyl)-carbamate]",pest or weed control at 5 ppm,Pyricularia oryzae,67%
CC(C)(C)C(=O)C(Oc1ccc(Cl)cc1)n1cncn1 (centres unmarked) [Triadimefon],pest or weed control at 10 ppm,Sphaerotheca fuliginea [4],0%
same,pest or weed control at 10 ppm,Sphaerotheca fuliginea [5],67%
"Cc1ccc(C(=O)NC[C@@H](NC(=O)OCC(F)(F)F)C(C)C)cc1 [Compound 2004, 2,2,2-Trifluoroethyl ((1S)-2-methyl-1-{[(4-methylbenzoyl)amino]methyl}-propyl)carbamate]",pest or weed control at 5 ppm,Pyricularia oryzae,67%
"Cc1ccc(C(=O)NC[C@@H](NC(=O)OCC(F)(F)F)C(C)(C)C)cc1 [Compound 2005, 2,2,2-Trifluoroethyl ((1S)-2,2-dimethyl-1-{[(4-methylbenzoyl)amino]methyl}-propyl)carbamate]",pest or weed control at 5 ppm,Pyricularia oryzae,67%
CCCCC(O)(Cn1cncn1)c1ccc(Cl)cc1Cl (centres unmarked) [Hexaconazole],pest or weed control at 2 ppm,Sphaerotheca fuliginea [4]; treatment concentration 2 ppm,17%
same,pest or weed control at 2 ppm,Sphaerotheca fuliginea [5]; treatment concentration 2 ppm,75%
CO/N=C(/C(=O)OC)c1ccccc1COc1ccccc1C [Kresoxim-methyl],pest or weed control at 20 ppm,Sphaerotheca fuliginea [4],17%
same,pest or weed control at 20 ppm,Sphaerotheca fuliginea [5],67%
Cc1ccc(-c2c(Cl)nc(C#N)n2S(=O)(=O)N(C)C)cc1 [Cyazofamid],pest or weed control at 9.4 ppm,[1]; [9],40%
same,pest or weed control at 9.4 ppm,[2]; [9],67%
O=C(Cc1ccccc1)N/C(=N\OCC1CC1)c1c(C(F)(F)F)ccc(F)c1F [Cyflufenamid],pest or weed control at 1.7 ppm,Sphaerotheca fuliginea [4]; [10],33%
same,pest or weed control at 1.7 ppm,Sphaerotheca fuliginea [5]; [10],67%
COc1ccc(C(=CC(=O)N2CCOCC2)c2ccc(Cl)cc2)cc1OC [Dimethomorph],pest or weed control at 20 ppm,[1]; [11],60%
same,pest or weed control at 20 ppm,[2]; [11],50%
N#Cc1c[nH]cc1-c1cccc2c1OC(F)(F)O2 [Fludioxonil],pest or weed control at 20 ppm,[3]; [7],67%
O=C(Nc1ccccc1-c1ccc(Cl)cc1)c1cccnc1Cl [Boscalid],pest or weed control at 50 ppm,[3]; [7],17%
"CC(C)[C@@H](CNC(=O)c1cc2ccccc2o1)NC(=O)OCC(F)(F)F [Compound 2006, 2,2,2-Trifluoroethyl ((1S)-1-{[(1-benzofuran-2-ylcarbonyl)amino]methyl}-2-methylpropyl)carbamate]",pest or weed control at 5 ppm,Pyricularia oryzae,67%
CC(C)OC(=O)N[C@H](C(=O)N[C@H](C)c1nc2ccc(F)cc2s1)C(C)C [Benthiavalicarb-isopropyl],pest or weed control at 10 ppm,[1]; [8],40%
same,pest or weed control at 10 ppm,[2]; [8],67%
CC(C)CC(C)c1sccc1NC(=O)c1cn(C)nc1C(F)(F)F (centres unmarked) [Penthiopyrad],pest or weed control at 10 ppm,[3]; [7],33%
N#CC(CCc1ccc(Cl)cc1)(Cn1cncn1)c1ccccc1 (centres unmarked) [Fenbuconazole],pest or weed control at 4.4 ppm,Sphaerotheca fuliginea [4]; [12],27%
same,pest or weed control at 4.4 ppm,Sphaerotheca fuliginea [5]; [12],75%
COCC(=O)N(c1c(C)cccc1C)[C@H](C)C(=O)OC [Metalaxyl M],Control value,[1]; treatment concentration 10 ppm,60
same,Control value,[2]; treatment concentration 10 ppm,83
